Results on 32 compounds are retold here after US20250296938A1, “Compounds that Interact with the Ras Superfamily for the Treatment of Cancers, Inflammatory Diseases, Rasopathies, and Fibrotic Disease” (SHY Therapeutics, LLC, priority 2018, published 2025).

Each structure is given as a SMILES string.

One experiment deals with MIA PaCa-2 pancreatic cancer cell line. Nature of the experiment: Cell proliferation assay (DAPI). It is filed as cell-based. Particulars: Homo sapiens; 10 μM, MIA PaCa-2 (Table 5A); read-out: % Inhibition of cell proliferation, MIA PaCa-2 % inh. As for the experimental part: Cell lines: Human NSCLC cells NCI-H1975 and NCI-H1299, and tumor-derived pancreatic cancer cell lines Panc-1, MIA-PACA2, and BxPC3, were all purchased from American Type Culture Collection and grown in complete RPMI medium (BxPC3, NCI-H1975 and NCI-H1299) or DMEM-High Glucose (Panc1 and MIA-PaCa-2), supplemented with penicillin (100 U/mL), streptomycin (100 μg/mL), and 10% heat-inactivated FBS at 37° C. in a humidified incubator with 5% CO2.
Method: Cells were plated at 2000 to 5000 cells/well density in 96-wells plate and cultured ON. Small molecules to be tested were added to the cells in the final concentration of 10 µM in the presence of 0.3% DMSO and 10% FBS, and incubated for 2-4 days at 37° C. in a humidified incubator with 5% CO2. For IC50 value determination, serial dilutions of compounds were added to cells under the same conditions.
Assay: At the end of the incubation period, cell cultures were fixed with a 50-50 mixture (v/v) acetone-methanol for 10 minutes at −20° C., followed by rehydration in PBS for 10 minutes at room temperature. DNA total content was determined by staining cells with DAPI (1 ug/ml) in PBS for 10 minutes at room temperature, followed by 3 washes with PBS. After staining, DAPI fluorescence was recorded (358 nm excitation/461 nm emission) with the 96-well plate reader Molecular Devices Spectramax M3; degree of small molecule-dependent proliferation inhibition was calculated from raw data.
As to `COC1CCC(Nc2nc(-c3nccn3C)nc3sc(-c4cccc5[nH]ncc45)c(C)c23)C1` (stereo not shown) [drawing 630], the inhibition at 10 µM was 76 to 100%.

For the compound `COc1cccc(-c2sc3nc(-c4nc(C)cn4C)nc(N[C@@H]4CC[C@H](OC)C4)c3c2C)c1F` [drawing 631], the inhibition at 10 µM was in the range of 76 to 100%.

Turning to `CO[C@H]1CC[C@@H](Nc2nc(-c3nc(C)cn3C)nc3sc(-c4cccc5[nH]ncc45)c(C)c23)C1` [drawing 632], the inhibition at 10 µM was 76 to 100%.

`COCCn1ccnc1-c1nc(O)c2scc(-c3ccc(OCC(C)C)nc3)c2n1` [drawing 633]: the inhibition at 10 µM was 76 to 100%.

Consider `CC(C)COc1ccc(-c2csc3c(O)nc(-c4nccn4Cc4ccccn4)nc23)cn1` [drawing 634], for which the inhibition at 10 µM lay in the range of 76 to 100%.

Regarding `COc1cccc(Cn2ccnc2-c2nc(O)c3scc(-c4ccc(OCC(C)C)nc4)c3n2)c1` [drawing 635], the inhibition at 10 µM is 76 to 100%.

On to `CO[C@H]1CC[C@@H](Nc2nc(-c3nccn3C)nc(C(=O)N3CCc4c(O)cccc4C3)c2C)C1` [drawing 636], for which the inhibition at 10 µM lay in the range of 1 to 25%.

Consider `CO[C@H]1C[C@@H](Nc2nc(-c3ccccn3)nc3sccc23)C1` [drawing 637], for which the inhibition at 10 µM is 1 to 25%.

As to `CO[C@H]1C[C@@H](Nc2nc(-c3nccn3C)nc3sccc23)C1` [drawing 638], the inhibition at 10 µM was 26 to 50%.

Consider `Cn1ccc(-c2sc3nc(-c4nccn4C)nc(O)c3c2-c2ccccc2)n1` [drawing 639], for which the inhibition at 10 µM lay within 76 to 100%.

Consider `CO[C@H]1C[C@@H](Nc2nc(-c3nccn3C)nc3sc(-c4ccn(C)n4)c(-c4ccccc4)c23)C1` [drawing 640], for which the inhibition at 10 µM is 76 to 100%.

On to `CO[C@H]1C[C@H](Nc2nc(-c3nccn3C)nc3sc(-c4ccn(C)n4)c(-c4ccccc4)c23)C1` [drawing 641], for which the inhibition at 10 µM lay in the range of 76 to 100%.

In the case of `CN(C)CCOCCNc1nc(-c2nccn2C)nc2sc(-c3ccn(C)n3)c(-c3ccccc3)c12` [drawing 642], the inhibition at 10 µM lay within 76 to 100%.

Take `Cn1ccc(-c2sc3nc(-c4nccn4C)nc(N[C@H]4C[C@@H](O)C4)c3c2-c2ccccc2)n1` [drawing 643]: the inhibition at 10 µM stood at 0%.

On to `CO[C@H]1C[C@@H](Nc2nc(-c3ncc[nH]3)nc3sc(-c4ccn(C)n4)c(-c4ccccc4)c23)C1` [drawing 645], for which the inhibition at 10 µM is 76 to 100%.

For `CO[C@H]1CC[C@@H](Nc2nc(-c3ncc[nH]3)nc3sc(-c4ccn(C)n4)c(-c4ccccc4)c23)C1` [drawing 646], the inhibition at 10 µM fell in the range of 76 to 100%.

`CO[C@H]1CC[C@@H](Nc2nc(-c3nccn3C)nc3sc(-c4ccn(C(C)C)n4)c(-c4ccccc4)c23)C1` [drawing 647]: the inhibition at 10 µM was in the range of 76 to 100%.

For `COc1nc(-c2ccccn2)nc2c(-c3ccccn3)csc12` [drawing 648], the inhibition at 10 µM is 51 to 75%.

Consider `CO[C@H]1C[C@@H](Nc2nc(-c3nccn3C)nc3sc(-c4ccn(C)n4)c(C)c23)C1` [drawing 649], for which the inhibition at 10 µM was 76 to 100%.

With `CO[C@H]1CC[C@@H](Nc2nc(-c3nccn3C)nc3sc(-c4ccn(C)n4)c(C)c23)C1` [drawing 650], the inhibition at 10 µM lay in the range of 76 to 100%.

On to `Cc1c(-c2ccn(C)n2)sc2nc(-c3nccn3C)nc(NCCCS(C)(=O)=O)c12` [drawing 651], for which the inhibition at 10 µM was determined as 0%.

Regarding `Cc1c(-c2ccn(C)n2)sc2nc(-c3nccn3C)nc(NCCCC(=O)N(C)C)c12` [drawing 652], the inhibition at 10 µM came to 0%.

As to `Cc1c(-c2ccn(C)n2)sc2nc(-c3nccn3C)nc(NCCOC(=O)N(C)C)c12` [drawing 653], the inhibition at 10 µM fell in the range of 26 to 50%.

With `CO[C@H]1CC[C@@H](Nc2nc(-c3nccn3C)nc3sc(-c4ccn(C(C)C)n4)c(C)c23)C1` [drawing 654], the inhibition at 10 µM lay within 76 to 100%.

In the case of `CO[C@H]1C[C@@H](Nc2nc(-c3nccn3C)nc3sc(C(=O)NC(C)C)c(-c4ccccc4)c23)C1` [drawing 655], the inhibition at 10 µM lay within 51 to 75%.

`COCCNC(=O)c1sc2nc(-c3nccn3C)nc(N[C@H]3C[C@@H](OC)C3)c2c1-c1ccccc1` [drawing 656]: the inhibition at 10 µM lay in the range of 26 to 50%.

Regarding `CO[C@H]1C[C@@H](Nc2nc(-c3nccn3C)nc3sc(C(=O)N4CCOCC4)c(-c4ccccc4)c23)C1` [drawing 657], the inhibition at 10 µM is 26 to 50%.

In the case of `COC1CCN(C(=O)c2sc3nc(-c4nccn4C)nc(N[C@H]4C[C@@H](OC)C4)c3c2-c2ccccc2)C1` (stereo partly shown) [drawing 658], the inhibition at 10 µM fell in the range of 26 to 50%.

With `CO[C@H]1CC[C@@H](Nc2nc(-c3nccn3C)nc3sc(C(=O)NC(C)C)c(-c4ccccc4)c23)C1` [drawing 659], the inhibition at 10 µM lay in the range of 76 to 100%.

For the compound `COCCNC(=O)c1sc2nc(-c3nccn3C)nc(N[C@@H]3CC[C@H](OC)C3)c2c1-c1ccccc1` [drawing 660], the inhibition at 10 µM lay in the range of 76 to 100%.

For `CO[C@H]1CC[C@@H](Nc2nc(-c3nccn3C)nc3sc(C(=O)N4CCCC4)c(-c4ccccc4)c23)C1` [drawing 661], the inhibition at 10 µM was 76 to 100%.

For the compound `CO[C@H]1CC[C@@H](Nc2nc(-c3nccn3C)nc3sc(C(=O)N4CCOCC4)c(-c4ccccc4)c23)C1` [drawing 662], the inhibition at 10 µM lay in the range of 51 to 75%.

The same experiment, now with this note: Homo sapiens; MIA PaCa-2 (Table 5A).
The IC50 is the midpoint of a concentration-inhibition curve. A high value points to weaker potency in that assay. As for `COC1CCC(Nc2nc(-c3nccn3C)nc3sc(-c4cccc5[nH]ncc45)c(C)c23)C1` (stereo not shown) [drawing 630], the IC50 is over 1000 nM.

Consider `COc1cccc(-c2sc3nc(-c4nc(C)cn4C)nc(N[C@@H]4CC[C@H](OC)C4)c3c2C)c1F` [drawing 631], for which the IC50 was 750 to 1000 nM.

For `CO[C@H]1CC[C@@H](Nc2nc(-c3nc(C)cn3C)nc3sc(-c4cccc5[nH]ncc45)c(C)c23)C1` [drawing 632], the IC50 is over 1000 nM.

`COCCn1ccnc1-c1nc(O)c2scc(-c3ccc(OCC(C)C)nc3)c2n1` [drawing 633] gave an IC50 of under 500 nM.

In turn, `CC(C)COc1ccc(-c2csc3c(O)nc(-c4nccn4Cc4ccccn4)nc23)cn1` [drawing 634] gave an IC50 of 500 to 749 nM.

On to `COc1cccc(Cn2ccnc2-c2nc(O)c3scc(-c4ccc(OCC(C)C)nc4)c3n2)c1` [drawing 635], for which the half-inhibitory concentration (IC50) is under 500 nM.

`CO[C@H]1CC[C@@H](Nc2nc(-c3nccn3C)nc(C(=O)N3CCc4c(O)cccc4C3)c2C)C1` [drawing 636] yielded an IC50 of over 1000 nM.

The compound `CO[C@H]1C[C@@H](Nc2nc(-c3ccccn3)nc3sccc23)C1` [drawing 637] displayed an IC50 of over 1000 nM.

`CO[C@H]1C[C@@H](Nc2nc(-c3nccn3C)nc3sccc23)C1` [drawing 638] had an IC50 of over 1000 nM.

In the case of `Cn1ccc(-c2sc3nc(-c4nccn4C)nc(O)c3c2-c2ccccc2)n1` [drawing 639], the half-inhibitory concentration (IC50) is over 1000 nM.

`CO[C@H]1C[C@@H](Nc2nc(-c3nccn3C)nc3sc(-c4ccn(C)n4)c(-c4ccccc4)c23)C1` [drawing 640] came in with an IC50 of over 1000 nM.

For `CO[C@H]1C[C@H](Nc2nc(-c3nccn3C)nc3sc(-c4ccn(C)n4)c(-c4ccccc4)c23)C1` [drawing 641], the IC50 was over 1000 nM.

On to `CN(C)CCOCCNc1nc(-c2nccn2C)nc2sc(-c3ccn(C)n3)c(-c3ccccc3)c12` [drawing 642], for which the IC50 is over 1000 nM.

Compound `Cn1ccc(-c2sc3nc(-c4nccn4C)nc(N[C@H]4C[C@@H](O)C4)c3c2-c2ccccc2)n1` [drawing 643] had a half-inhibitory concentration (IC50) of over 1000 nM.

`CO[C@H]1C[C@@H](Nc2nc(-c3ncc[nH]3)nc3sc(-c4ccn(C)n4)c(-c4ccccc4)c23)C1` [drawing 645] came in with a concentration for half-maximal inhibition (IC50) of 750 to 1000 nM.

On to `CO[C@H]1CC[C@@H](Nc2nc(-c3ncc[nH]3)nc3sc(-c4ccn(C)n4)c(-c4ccccc4)c23)C1` [drawing 646], for which the IC50 lay in the range of 750 to 1000 nM.

Take `CO[C@H]1CC[C@@H](Nc2nc(-c3nccn3C)nc3sc(-c4ccn(C(C)C)n4)c(-c4ccccc4)c23)C1` [drawing 647]: the 50% inhibitory concentration (IC50) lay within 500 to 749 nM.

With `COc1nc(-c2ccccn2)nc2c(-c3ccccn3)csc12` [drawing 648], the IC50 is over 1000 nM.

Consider `CO[C@H]1C[C@@H](Nc2nc(-c3nccn3C)nc3sc(-c4ccn(C)n4)c(C)c23)C1` [drawing 649], for which the half-inhibitory concentration (IC50) was over 1000 nM.

Consider `CO[C@H]1CC[C@@H](Nc2nc(-c3nccn3C)nc3sc(-c4ccn(C)n4)c(C)c23)C1` [drawing 650], for which the IC50 fell in the range of 750 to 1000 nM.

`Cc1c(-c2ccn(C)n2)sc2nc(-c3nccn3C)nc(NCCCS(C)(=O)=O)c12` [drawing 651] gave an IC50 of over 1000 nM.

For `Cc1c(-c2ccn(C)n2)sc2nc(-c3nccn3C)nc(NCCCC(=O)N(C)C)c12` [drawing 652], the IC50 is over 1000 nM.

`Cc1c(-c2ccn(C)n2)sc2nc(-c3nccn3C)nc(NCCOC(=O)N(C)C)c12` [drawing 653] returned an IC50 of over 1000 nM.

Consider `CO[C@H]1CC[C@@H](Nc2nc(-c3nccn3C)nc3sc(-c4ccn(C(C)C)n4)c(C)c23)C1` [drawing 654], for which the IC50 was 500 to 749 nM.

For the compound `CO[C@H]1C[C@@H](Nc2nc(-c3nccn3C)nc3sc(C(=O)NC(C)C)c(-c4ccccc4)c23)C1` [drawing 655], the IC50 was over 1000 nM.

In the case of `COCCNC(=O)c1sc2nc(-c3nccn3C)nc(N[C@H]3C[C@@H](OC)C3)c2c1-c1ccccc1` [drawing 656], the IC50 was over 1000 nM.

In the case of `CO[C@H]1C[C@@H](Nc2nc(-c3nccn3C)nc3sc(C(=O)N4CCOCC4)c(-c4ccccc4)c23)C1` [drawing 657], the IC50 is over 1000 nM.

In turn, `COC1CCN(C(=O)c2sc3nc(-c4nccn4C)nc(N[C@H]4C[C@@H](OC)C4)c3c2-c2ccccc2)C1` (stereo partly shown) [drawing 658] had an IC50 of over 1000 nM.

For the compound `CO[C@H]1CC[C@@H](Nc2nc(-c3nccn3C)nc3sc(C(=O)NC(C)C)c(-c4ccccc4)c23)C1` [drawing 659], the IC50 is over 1000 nM.

The compound `COCCNC(=O)c1sc2nc(-c3nccn3C)nc(N[C@@H]3CC[C@H](OC)C3)c2c1-c1ccccc1` [drawing 660] gave an IC50 of over 1000 nM.

Regarding `CO[C@H]1CC[C@@H](Nc2nc(-c3nccn3C)nc3sc(C(=O)N4CCCC4)c(-c4ccccc4)c23)C1` [drawing 661], the IC50 is over 1000 nM.

On to `CO[C@H]1CC[C@@H](Nc2nc(-c3nccn3C)nc3sc(C(=O)N4CCOCC4)c(-c4ccccc4)c23)C1` [drawing 662], for which the IC50 was over 1000 nM.
